Like-named read-outs stand apart in the source and are kept apart here. Numbered stars: 1 amine (or outer) side, 2 acyl side, 3 side chain; on linkers, the order of the positions; unused ones are H or OH. Side chains are listed from the residue outwards. Ends that are not written are not given here. Peptide text beside a SMILES is read from it. * marks the point of attachment. C20 diacid = O=C(O)CCCCCCCCCCCCCCCCCCC(=O)*; γGlu = O=C(O)[C@H](CCC(=O)[*:2])N[*:1]; AEEA = NCCOCCOCC(=O)O
Key:
Human CRF1 receptor = molecular target: T1, Human CRF1 receptor (Homo sapiens, UniProt P34998); assay: CRF1 receptor binding, scintillation proximity assay (SPA); conditions: displacement of [125I]-Sauvagine, CHO-K1 cell membranes
T1 construct: host or cells: CHO-K1 (membrane preparation)
T1 sequence (P34998 24-415): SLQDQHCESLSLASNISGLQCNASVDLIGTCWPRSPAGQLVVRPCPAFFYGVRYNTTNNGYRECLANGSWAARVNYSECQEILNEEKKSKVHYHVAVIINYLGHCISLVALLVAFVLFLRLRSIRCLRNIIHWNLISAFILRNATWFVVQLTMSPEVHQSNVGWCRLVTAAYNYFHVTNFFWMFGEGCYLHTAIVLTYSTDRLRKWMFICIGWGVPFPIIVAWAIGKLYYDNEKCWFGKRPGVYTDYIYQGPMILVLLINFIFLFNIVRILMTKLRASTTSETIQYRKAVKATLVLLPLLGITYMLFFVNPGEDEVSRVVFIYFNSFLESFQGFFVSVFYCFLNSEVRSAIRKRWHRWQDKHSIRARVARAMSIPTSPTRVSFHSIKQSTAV
Protocol: (§1) The purpose of this example was to test the in vitro binding of the compounds of the invention to receptor subtypes CRF1 and CRF2. The in vitro binding of the compounds was determined in a scintillation proximity assay (SPA) as described below. The native, human Ucn1 and Ucn2 peptides are included as references. Scintillation Proximity Assay: […] Both cell lines were cultured at 37° C. in a humidified atmosphere with 5% CO2. […] Membranes were prepared by the following protocol: cultured cells were washed twice with cold Dulbecco’s phosphate buffered saline and detached using TrypLE™ (ThermoFisher) and transferred to tubes and centrifuged for 5 minutes at 1000 g at +4° C. Pellets were resuspended in ice cold homogenization buffer (20 mM Hepes pH 7.1, 5 mM MgCl2, 1 mg/ml Bacitracin with 2 complete EDTA-free protease inhibitor cocktail tablets/50 ml (Roche)) and then homogenized for 30 seconds using a Ultra-Turrax T25 tissue homogenizer (IKA) at medium speed. The homogenate was centrifuged at 35,000 g for 15 minutes at +4° C. using an ultracentrifuge, and the supernatant was discarded, and fresh homogenization buffer was added. Homogenization of the pellet was repeated a total of three times. The final pellet was resuspended in a few millilitres of homogenization buffer and protein concentration was determined using the Bradford method. The membrane preparation was transferred to cryotubes, and the aliquots were stored at -80° C. Each membrane preparation was subsequently titrated to give an appropriate window in the assay. Test procedure: […] Plates were sealed and incubated at 25° C. for 2 hours in a plate shaker set at 400 rpm and thereafter centrifuged at 1500 rpm for 10 minutes. SPA plates were let to stand at room temperature for about 16 hours prior to reading on microplate scintillation counter. Displacement of radioligand was measured as reduction in luminescence, and IC50 values were calculated by nonlinear regression analysis of four parameter sigmoidal dose-response curves.

Human CRF2 receptor = molecular target: T2, Human CRF2 receptor (Homo sapiens, UniProt Q13324); assay: CRF2 receptor binding, scintillation proximity assay (SPA); conditions: displacement of [125I]-Sauvagine, CHO-K1 cell membranes
T2 construct: host or cells: CHO-K1 (membrane preparation)
T2 sequence (Q13324 1-411): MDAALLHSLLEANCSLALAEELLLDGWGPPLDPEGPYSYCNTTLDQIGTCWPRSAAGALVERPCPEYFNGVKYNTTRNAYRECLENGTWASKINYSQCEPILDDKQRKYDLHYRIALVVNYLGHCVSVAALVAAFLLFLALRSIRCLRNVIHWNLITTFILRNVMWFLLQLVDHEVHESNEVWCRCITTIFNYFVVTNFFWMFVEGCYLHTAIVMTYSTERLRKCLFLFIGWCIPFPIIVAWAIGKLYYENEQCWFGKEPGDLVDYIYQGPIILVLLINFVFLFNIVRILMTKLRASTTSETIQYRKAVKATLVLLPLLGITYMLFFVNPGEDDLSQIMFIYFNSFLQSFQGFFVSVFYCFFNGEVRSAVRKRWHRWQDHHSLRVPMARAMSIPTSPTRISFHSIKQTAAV
Protocol: as §1

[1] = Physical stability of liquid formulation (visible particles, turbidity); format: physicochemical; conditions: 8 mM sodium phosphate; for Particle formation onset: pH 7.4, 31-37 mg/mL (Compound 7: 21 mg/mL), 37° C., 2 weeks, daily rotation
Protocol: The purpose of the study was to evaluate the physical stability of a liquid pharmaceutical formulation comprising test compound. The physical stability was determined as the formation of visible particles and the change in turbidity over time.
Test procedures: Test compound was dissolved in 8 mM sodium phosphate, pH 7.4 to a concentration of 31-37 mg/mL in vials (except for Compound 7 which was dissolved to a concentration of 21 mg/mL and Compound 5 which was not soluble at concentrations of ≥20 mg/mL). The vials were incubated at 37° C. for 2 weeks. Every day the vials were rotated end-to-end for 1 minute, 30 rounds. Every second day the vials were placed in front of a black background with strong LED light (Schott light source, KL2500) illuminating from below and a picture for analysis was taken.
Analysis: “Average pixel intensity” is a measure of turbidity of a liquid solution. It was measured by taking the average pixel intensity, ranging from 0 (black) to 255 (white), in a small square of a digital image of the glass vials containing a liquid solution and results are reported in FIG. 1. “Particle density” is a measure of visible particles in a liquid solution. It was measured by counting the number of visible particles in a region of a digital image of the glass vial containing a liquid solution and dividing with the area of the region and the results are reported in FIG. 2.

[2] = for Average purity loss per week: 8 mM sodium phosphate buffer pH 7.4, 0.7-1.1 mM, 37° C., 0-4 weeks, UPLC
Text: The purpose of the study was to evaluate the chemical stability of a liquid pharmaceutical formulation comprising test compound. The chemical stability was be determined by measuring test compound purity loss (i.e. reduction of test compound relative to other species in the sample) over time using ultra-performance liquid chromatography (UPLC) coupled to an ultra-violet detector operated in reversed-phase mode.
Equipment and analysis conditions: Acquity UPLC I-Class instrument (Waters, Milford, US) together with either an Acquity UPLC CSH Fluorophenyl column (PN. 186005353 from Waters, Milford, US) or an Acquity Premier CSH column (PN. 186009462 from Waters, Milford, US), both having the dimensions 150 × 2.1 mm, particle diameter 1.7 µm and kept at 30° C., was used for the test. Mobile phase A was 0.1% vol/vol trifluoroacetic acid in water and mobile phase B was 0.09% vol/vol trifluoroacetic acid in acetonitrile. The flow rate was 0.35 mL/min while elution was done with a linear gradient of 26% to 40% mobile phase B over 50 min for the UPLC Fluorophenyl column and 30% to 50% mobile phase B over 50 min for the Premier CSH column. Detection was performed at UV 214 nm with 2 µL of volume injected from each sample.
Samples were kept in glass vials for quiescent storage in a 37° C. incubation chamber and subjected to analysis after 0, 1, 2, 3 and 4 weeks. Samples were analysed using UPLC (as described above) with chromatogram peak area as a measure of test compound concentration. Purity was determined at each timepoint as the fraction, given in %, of test compound relative to other species present in the sample. The purity loss over time is the relative difference in % test compound between timepoints and it is reported in Table 7 as the average from the five timepoints.

| Compound | IC50 (Human CRF1 receptor) | IC50 (Human CRF2 receptor) | Particle formation onset [1] | Average purity loss per week [2] | further results |
| --- | --- | --- | --- | --- | --- |
| CC[C@H](C)[C@H](NC(=O)[C@H](CCCNC(=N)N)NC(=O)[C@H](C)NC(=O)[C@H](CC(N)=O)NC(=O)[C@@H](NC(=O)[C@@H](NC(=O)[C@H](C)NC(=O)[C@H](CCC(N)=O)NC(=O)[C@H](CCC(=O)O)NC(=O)[C@H](CCCNC(=N)N)NC(=O)[C@H](C)NC(=O)[C@H](C)NC(=O)[C@H](CCCNC(=N)N)NC(=O)[C@H](C)NC(=O)[C@H](CCCNC(=N)N)NC(=O)[C@H](C)NC(=O)[C@H](CCC(N)=O)NC(=O)[C@H](CCC(=O)O)NC(=O)[C@H](CC(C)C)NC(=O)[C@H](CC(C)C)NC(=O)[C@@H](NC(=O)[C@H](CCC(N)=O)NC(=O)[C@H](CC(C)C)NC(=O)[C@H](CC(C)C)NC(=O)CNC(=O)[C@@H](NC(=O)[C@@H]1CCCN1C(=O)[C@@H](NC(=O)[C@H](CC(=O)O)NC(=O)[C@H](CC(C)C)NC(=O)[C@H](CO)NC(=O)[C@H](CC(C)C)NC(=O)[C@@H](NC(=O)[C@@H](NC(=O)[C@@H](N)CCCCNC(=O)COCCOCCNC(=O)COCCOCCNC(=O)CC[C@H](NC(=O)CC[C@H](NC(=O)CC[C@H](NC(=O)CCCCCCCCCCCCCCCCCCC(=O)O)C(=O)O)C(=O)O)C(=O)O)[C@@H](C)CC)C(C)C)C(C)C)[C@@H](C)CC)[C@@H](C)CC)[C@@H](C)O)[C@@H](C)O)C(=O)N[C@@H](CCC(=O)O)C(=O)N[C@@H](C)C(=O)N[C@@H](CCCNC(=N)N)C(=O)N[C@H](C(N)=O)C(C)C [Compound 9] (H-K([AEEA-AEEA-γGlu-γGlu-γGlu-C20 diacid])IVLSLDVPIGLLQILLEQARARAAREQATTNARIEARV-NH2) | > 1000 nM | 897 nM | – | – | – |
| CC[C@H](C)[C@H](NC(=O)[C@H](CCC(=O)O)NC(=O)[C@H](C)NC(=O)[C@H](CC(N)=O)NC(=O)[C@@H](NC(=O)[C@@H](NC(=O)[C@H](C)NC(=O)[C@H](CCC(N)=O)NC(=O)[C@H](CCC(=O)O)NC(=O)[C@H](CCCNC(=N)N)NC(=O)[C@H](C)NC(=O)[C@H](C)NC(=O)[C@H](CCCNC(=N)N)NC(=O)[C@H](C)NC(=O)[C@H](CCCNC(=N)N)NC(=O)[C@H](C)NC(=O)[C@H](CCC(N)=O)NC(=O)[C@H](CCC(=O)O)NC(=O)[C@H](CC(C)C)NC(=O)[C@H](CC(C)C)NC(=O)[C@@H](NC(=O)[C@H](CCC(N)=O)NC(=O)[C@H](CC(C)C)NC(=O)[C@H](CC(C)C)NC(=O)CNC(=O)[C@@H](NC(=O)[C@@H]1CCCN1C(=O)[C@@H](NC(=O)[C@H](CC(=O)O)NC(=O)[C@H](CC(C)C)NC(=O)[C@H](CO)NC(=O)[C@H](CC(C)C)NC(=O)[C@@H](NC(=O)[C@@H](NC(=O)[C@@H](N)CCCCNC(=O)COCCOCCNC(=O)COCCOCCNC(=O)CC[C@H](NC(=O)CC[C@H](NC(=O)CC[C@H](NC(=O)CCCCCCCCCCCCCCCCCCC(=O)O)C(=O)O)C(=O)O)C(=O)O)[C@@H](C)CC)C(C)C)C(C)C)[C@@H](C)CC)[C@@H](C)CC)[C@@H](C)O)[C@@H](C)O)C(=O)N[C@@H](CCC(=O)O)C(=O)N[C@@H](C)C(=O)N[C@@H](CCCNC(=N)N)C(=O)N[C@H](C(N)=O)C(C)C [Compound 10] (H-K([AEEA-AEEA-γGlu-γGlu-γGlu-C20 diacid])IVLSLDVPIGLLQILLEQARARAAREQATTNAEIEARV-NH2) | > 1000 nM | 569 nM | – | – | – |
| CC[C@H](C)[C@H](NC(=O)[C@H](CCC(=O)O)NC(=O)[C@H](C)NC(=O)[C@H](CC(N)=O)NC(=O)[C@@H](NC(=O)[C@@H](NC(=O)[C@H](C)NC(=O)[C@H](CCC(N)=O)NC(=O)[C@H](CCC(=O)O)NC(=O)[C@H](CCCNC(=N)N)NC(=O)[C@H](C)NC(=O)[C@H](C)NC(=O)[C@H](CCCNC(=N)N)NC(=O)[C@H](C)NC(=O)[C@H](CCCNC(=N)N)NC(=O)[C@H](C)NC(=O)[C@H](CCC(N)=O)NC(=O)[C@H](CCC(=O)O)NC(=O)[C@H](CC(C)C)NC(=O)[C@H](CC(C)C)NC(=O)[C@@H](NC(=O)[C@H](CCC(N)=O)NC(=O)[C@H](CC(C)C)NC(=O)[C@H](CC(C)C)NC(=O)CNC(=O)[C@@H](NC(=O)[C@@H]1CCCN1C(=O)[C@@H](NC(=O)[C@H](CC(=O)O)NC(=O)[C@H](CC(C)C)NC(=O)[C@H](CO)NC(=O)[C@H](CC(C)C)NC(=O)[C@@H](NC(=O)[C@@H](N)CCCCNC(=O)COCCOCCNC(=O)COCCOCCNC(=O)CC[C@H](NC(=O)CC[C@H](NC(=O)CC[C@H](NC(=O)CCCCCCCCCCCCCCCCCCC(=O)O)C(=O)O)C(=O)O)C(=O)O)C(C)C)C(C)C)[C@@H](C)CC)[C@@H](C)CC)[C@@H](C)O)[C@@H](C)O)C(=O)N[C@@H](CC(C)C)C(=O)N[C@@H](CCC(=O)O)C(=O)N[C@@H](CCCNC(=N)N)C(=O)N[C@H](C(N)=O)C(C)C [Compound 11] (H-K([AEEA-AEEA-γGlu-γGlu-γGlu-C20 diacid])VLSLDVPIGLLQILLEQARARAAREQATTNAEILERV-NH2) | > 1000 nM | 196 nM | – | – | – |
| DNPSLSIDLTFHLLRTLLELARTQSQRERAEQNRIIFDSV-NH2 [Compound 1] | – | 0.12 nM | – | – | – |
| N{ε}-[[[(4S)-4-carboxy-4-[[(4S)-4-carboxy-4-[[(4S)-4-carboxy-4-(19-carboxynonadecanoylamino)butanoyl]amino]butanoyl]amino]butanoyl]amino]ethoxy]ethoxy]a cetyl]amino]ethoxy]ethoxy]acetyl]Lys-[Glu33]-hUcn2 [Compound 6] | – | – | 1 days | 0.90% | – |
| N{ε}-[[[(4S)-4-carboxy-4-[[(4S)-4-carboxy-4-[[(4S)-4-carboxy-4-(19-carboxynonadecanoylamino)butanoyl]amino]butanoyl]amino]butanoyl]amino]ethoxy]ethoxy]a cetyl]amino]ethoxy]ethoxy]acetyl]Lys-[Glu36]-hUcn2 [Compound 7] | – | – | 7 days | 3.95% | – |
| N{ε}-[[[(4S)-4-carboxy-4-[[(4S)-4-carboxy-4-[[(4S)-4-carboxy-4-(19-carboxynonadecanoylamino)butanoyl]amino]butanoyl]amino]butanoyl]amino]ethoxy]ethoxy]a cetyl]amino]ethoxy]ethoxy]acetyl]Lys-[Glu37]-hUcn2 [Compound 8] | – | – | – | 2.43% | – |
| N{ε}-[[[(4S)-4-carboxy-4-[[(4S)-4-carboxy-4-[[(4S)-4-carboxy-4-(19-carboxynonadecanoylamino)butanoyl]amino]butanoyl]amino]butanoyl]amino]ethoxy]ethoxy]a cetyl]amino]ethoxy]ethoxy]acetyl]Lys-hUcn2 [Compound 5] | – | – | Not soluble | Not soluble | Solubility (not soluble at concentrations of) ([1]; pH 7.4): < 20 mg/mL; Solubility (not soluble at concentrations of) ([2]; pH 7.4): < 700 µM |

— patent US20230233650A1, “NOVEL FATTY ACID MODIFIED UROCORTIN 2 DERIVATIVES AND THE USES THEREOF” (Novo Nordisk A/S, priority 2021, published 2023)
